Data: patent US20050256003A1, “Novel herbicides” (priority 2002, published 2005)

How the values were obtained:
[1] = test system: monocotyledonous and dicotyledonous test plants; experiment: Herbicidal action prior to emergence of the plants (pre-emergence action); assay type: in vivo; parameters: key: 10=total damage; 0=no action; Ratings of from 10 to 7 (especially from 10 to 8) indicate good to very good herbicidal action; conditions: 250 g a.i./ha, pre-emergence spray, evaluated after 3 weeks, scale 10=total damage, 0=no action
Text: Herbicidal Action Prior to Emergence of the Plants (Pre-Emergence Action)
Monocotyledonous and dicotyledonous test plants are sown in standard soil in plastic pots Immediately after sowing, the test compounds, in the form of an aqueous suspension (prepared from a 25% wettable powder (Example F3, b) according to WO 97/34485) or in the form of an emulsion (prepared from a 25% emulsifiable concentrate (Example F1, c)), are applied by spraying in a concentration corresponding to 125 g or 250 g of active ingredient/ha (500 litres of water/ha). The test plants are then grown in a greenhouse under optimum conditions. After a test duration of 3 weeks, the test is evaluated in accordance with a scale of nine ratings (10=total damage, 0=no action). Ratings of from 10 to 7 (especially from 10 to 8) indicate good to very good herbicidal action.

[2] = test system: monocotyledonous and dicotyledonous test plants; experiment: Post-emergence herbicidal action; assay type: in vivo; parameters: key: 10=total damage; 0=no action; Ratings of from 10 to 7 (especially from 10 to 8) indicate good to very good herbicidal action; conditions: 250 g a.i./ha, about 18 days, rating 0-10
Description: Post-Emergence Herbicidal Action
In a greenhouse, monocotyledonous and dicotyledonous test plants are grown in standard soil in plastic pots and at the 4- to 6-leaf stage are sprayed with an aqueous suspension of the test compounds of formula I prepared from a 25% wettable powder (Example F3, b) according to WO 97/34485) or with an emulsion of the test compounds of formula I prepared from a 25% emulsifiable concentrate (Example F1, c) according to WO 97/34485), in a concentration corresponding to 125 g or 250 g of active ingredient/ha (500 litres of water/ha). The test plants are then grown on in a greenhouse under optimum conditions. After a test duration of about 18 days, the test is evaluated in accordance with a scale of nine ratings (10=total damage, 0=no action). Ratings of from 10 to 7 (especially from 10 to 8) indicate good to very good herbicidal action.

Row | SMILES | Pre-emergence action: Abutilon (rating) [1] | Pre-emergence action: Amaranthus (rating) [1] | Pre-emergence action: Chenopodium (rating) [1] | Pre-emergence action: Cyperus (rating) [1] | Pre-emergence action: Echinochloa (rating) [1] | Pre-emergence action: Panicum (rating) [1] | Pre-emergence action: Scirpus (rating) [1] | Pre-emergence action: Sida (rating) [1] | Post-emergence action, Amaranthus [2] | Post-emergence action, Chenopodium [2] | Post-emergence action, Echinochloa [2] | Post-emergence action, Euphorbia [2] | Post-emergence action, Ipomea [2] | Post-emergence action, Sinapis [2] | Post-emergence action, Stellaria [2] | Post-emergence action, Xanthium [2]
1 | CSC(C)n1c(C)cc(=O)n1Cc1nc(C(F)(F)F)ccc1C(=O)C1=C(O)CCCC1=O (racemic) [Compound A1.055] | 10 | 0 | 10 | 10 | 10 | 9 | 9 | 10 |  |  |  |  |  |  |  | 
2 | Cn1ncn(Cc2nc(C(F)(F)F)ccc2C(=O)C2=C(O)CCCC2=O)c1=O [Compound A1.073] | 10 | 10 | 10 | 10 | 3 | 10 | 10 | 9 | 10 | 10 | 9 | 9 | 10 | 10 | 10 | 9
3 | Cc1nn(Cc2nc(C(F)(F)F)ccc2C(=O)C2=C(O)CCCC2=O)c(=O)s1 [Compound A1.079] | 10 | 4 | 8 | 8 | 5 | 9 | 10 | 10 | 9 | 9 | 7 | 8 | 8 | 9 | 9 | 7
4 | COc1nn(Cc2nc(C(F)(F)F)ccc2C(=O)C2=C(O)CCCC2=O)c(=O)s1 [Compound A1.091] | 10 | 8 | 9 | 8 | 9 | 4 | 9 | 7 | 9 | 10 | 9 | 8 | 9 | 8 | 10 | 9
5 | Cn1ncn(Cc2nc(C(F)(F)F)ccc2C(=O)C2=C(O)C3CCC(C3)C2=O)c1=O (centres unmarked) [Compound A6.073] | 10 | 9 | 10 | 7 | 0 | 10 | 10 | 9 | 10 | 10 | 9 | 9 | 10 | 10 | 9 | 9
6 | Cc1nn(Cc2nc(C(F)(F)F)ccc2C(=O)C2=C(O)C3CCC(C3)C2=O)c(=O)s1 (centres unmarked) [Compound A6.079] | 10 | 7 | 10 | 6 | 7 | 9 | 9 | 6 |  |  |  |  |  |  |  | 
7 | Cc1nn(CCOCc2nc(C(F)(F)F)ccc2C(=O)C2=C(O)C3CCC(C3)C2=O)c(=O)o1 (centres unmarked) [Compound A6.100] | 10 | 10 | 10 | 6 | 10 | 10 | 10 | 10 | 9 | 10 | 7 | 7 | 9 | 8 | 9 | 7
8 | CCOc1nn(Cc2nc(C(F)(F)F)ccc2C(=O)c2cnn(C)c2O)c(=O)n1C [Compound B1.005] |  |  |  |  |  |  |  |  | 9 | 9 | 4 | 9 | 8 | 9 | 8 | 6
9 | COc1nn(Cc2nc(C(F)(F)F)ccc2C(=O)c2cnn(C)c2O)c(=O)n1C1CC1 [Compound B1.039] |  |  |  |  |  |  |  |  | 6 | 8 | 9 | 9 | 8 | 9 | 9 | 8
10 | CCOc1nn(Cc2nc(C(F)(F)F)ccc2C(=O)c2cnn(C)c2O)c(=O)n1CC [Compound B1.050] |  |  |  |  |  |  |  |  | 9 | 9 | 4 | 9 | 7 | 9 | 7 | 8
11 | CCOc1nn(Cc2nc(C(F)(F)F)ccc2C(=O)c2cnn(C)c2O)c(=O)n1C1CC1 [Compound B1.056] |  |  |  |  |  |  |  |  | 9 | 8 | 9 | 9 | 10 | 8 | 7 | 0
12 | CSC(=O)n1c(C)cc(=O)n1Cc1nc(C(F)(F)F)ccc1C(=O)c1cnn(C)c1O [Compound B1.062] |  |  |  |  |  |  |  |  | 9 | 9 | 4 | 9 | 7 | 8 | 8 | 6
13 | CC(C)c1cn(-c2ccccc2)c(=O)n1Cc1nc(C(F)(F)F)ccc1C(=O)c1cnn(C)c1O [Compound B1.158] |  |  |  |  |  |  |  |  | 7 | 8 | 4 | 7 | 8 | 7 | 7 | 5
14 | Cn1ncc(C(=O)c2ccc(C(F)(F)F)nc2Cn2c(=O)oc3cc(Cl)ccc32)c1O [Compound B1.194] |  |  |  |  |  |  |  |  | 9 | 9 | 9 | 9 | 7 | 7 | 8 | 9
